Values of other authors in PMC8344021, “Discovery of Small Molecule Bak Activator for Lung Cancer Therapy” (Theranostics, 2021).

Columns and labels:
SCLC = system: SCLC; set-up: method as in PMID 21282543, PMID 22496272; details: single-agent, SCLC patients; ref [16], [17]; cited from earlier work
[1] = system: chronic lymphocytic leukemia (CLL); set-up: method as in PMID 29562156, PMID 31205643; details: venetoclax monotherapy or venetoclax/rituximab combination; ref [11], [12]; cited from earlier work

SMILES	clinical efficacy (SCLC)	proportion of patients who develop venetoclax failure [1]
CC1(C)CCC(c2ccc(Cl)cc2)=C(CN2CCN(c3ccc(C(=O)NS(=O)(=O)c4ccc(N[C@H](CCN5CCOCC5)CSc5ccccc5)c(S(=O)(=O)C(F)(F)F)c4)cc3)CC2)C1 [navitoclax]	limited efficacy	–
CC1(C)CCC(CN2CCN(c3ccc(C(=O)NS(=O)(=O)c4ccc(NCC5CCOCC5)c([N+](=O)[O-])c4)c(Oc4cnc5[nH]ccc5c4)c3)CC2)=C(c2ccc(Cl)cc2)C1 [venetoclax]	–	15-25%
